Measured values taken from the METLIN SMRT retention time set (Domingo-Almenara et al. 2019).

Experiment: gradient 5% acetonitrile 3 min, to 50% in 2 min, to 85% in 15 min, held 3 min, 100 µL/min
Settings: column: Zorbax Extend-C18 2.1 x 50 mm; eluents: water / acetonitrile, 0.1% formic acid
Outline: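 Retention times come from adduct peaks that were picked computationally and then checked by hand. The standards, pure and pooled in mixtures of ~100 molecules, were run on a Zorbax Extend-C18 column (2.1 × 50 mm, 1.8 μm) at 100 μL/min with water and acetonitrile, each with 0.1% formic acid. Detection was by quadrupole time-of-flight mass spectrometry in positive and negative ionization mode, with a dead volume of 40 μL and a dwell volume of 900 μL.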

RP-LC retention time	SMILES
1020 s	Cc1cc(NC(=O)c2cn(-c3ccc(C#N)cc3)cn2)ccc1Br
731 s	Cc1ccc(C(=O)NCc2nc(-c3ccc4c(c3)nnn4C)no2)cc1
672 s	Cn1ncc2c3ccccc3n(CCCC(=O)NCCCN3CCN(c4ccccc4)CC3)c2c1=O
1100 s	CSc1cccc(NC(=O)C2CCN(S(=O)(=O)c3ccc(-c4noc(C5CC5)n4)cc3)CC2)c1
736 s	Cc1nc2ccn(Cc3cccs3)c(=O)c2cc1C(=O)NC1CCCC1
710 s	CN1CCC(Nc2ncc3ncnc(Nc4ccc(F)c(Cl)c4)c3n2)CC1
769 s	COC(=O)c1c(NCc2ccc(F)cc2F)c2cc(F)ccc2[nH]c1=O
942 s	CCC(CC)C(=O)N1CCN(c2nc3cccnc3n(CC)c2=O)CC1
652 s	Cc1cccc2nnc(N3CCN(C(=O)c4ccc(F)c(F)c4)CC3)n12
960 s	CCc1ccccc1N1C(=O)CN(S(=O)(=O)c2ccccc2)CC1(C)C(=O)NC1CCCC1 (centres undefined)
988 s	Cc1nn(-c2ccc(-c3ccccc3)nn2)c(C)c1S(=O)(=O)NCc1ccc(F)cc1
646 s	CCCn1ccc2sc(C)c(C(=O)N3CCOCC3)c2c1=O
825 s	Cc1ccc(C(=O)NC2CCN(c3ccc(C)cc3)C2=O)cc1 (centres undefined)
741 s	Nc1nc(N)c(-c2cccc(C(F)(F)F)c2)c(Cc2cccc(C(F)(F)F)c2)n1
926 s	O=C(CCCCCN1CCN(c2ccccc2-c2ccccc2)CC1)NC1CCCc2ccccc21 (centres undefined)
1010 s	Cc1cccc(CNC(=O)C2CCCN(S(=O)(=O)c3cc(-c4noc(C)n4)cs3)C2)c1 (centres undefined)
1030 s	COc1ccc(NC(=O)c2sc(-c3cn(C(C)C)c4ncccc34)nc2C)c(OC)c1
838 s	O=C(c1ccc(Cl)cc1)N1CCN(S(=O)(=O)c2cc3c4c(c2)CCC(=O)N4CCC3)CC1
909 s	O=C(c1ccccc1)N1CCC(CCNS(=O)(=O)c2ccc(Br)cc2)CC1
966 s	O=C(Nc1ccc(F)c(F)c1)c1cccn1Cc1noc(C2CC2)n1
687 s	O=C(NCc1ccc(Cl)cc1)c1nc(-c2ccncc2)cs1
978 s	CC1=NS(=O)(=O)N(C)C=C1C(=O)OCc1ccc(Cl)cc1
708 s	Cn1cccc1Cc1nnc(SCC(=O)NCc2ccco2)n1Cc1ccccc1

RP-LC retention time	SMILES
709 s	COCCOCC1CCN(C(=O)COc2cccc(OC)c2)CC1
645 s	Cc1nn(CCCC(=O)NCCCN2CCCCC2)c(=O)c2c1sc1ccccc12
758 s	Cc1ccc2cc(CCC(=O)O)c(=O)[nH]c2c1
814 s	COc1ccc(-c2cc(C(=O)NCCc3c[nH]c4ccccc34)[nH]n2)cc1
612 s	CCn1c(CN2CCN(S(C)(=O)=O)CC2)nc2cc(NC(=O)C(C)C)ccc21
948 s	CCc1sc(NC(=O)CCS(=O)(=O)Cc2ccccc2)nc1-c1ccccc1
790 s	CCCCNc1nc(N)ncc1[N+](=O)[O-]
817 s	CC(=O)c1sc(NC(=O)c2cc(Cl)ccc2Cl)nc1C
748 s	COc1cc(CNC(=O)C2CCN(c3nc(C4CCC4)nc4csc(C)c34)CC2)cc(OC)c1
853 s	Cc1ccccc1Oc1nccn2c(=O)n(CC(=O)Nc3ccccc3F)nc12
582 s	Cc1ccc(C(=O)N[C@@H]2CN(S(C)(=O)=O)C[C@H]2CN(C)C)s1
818 s	Cc1cc(C)cc(NC(=O)C2CCN(C(=O)C3Sc4ccccc4NC3=O)CC2)c1 (centres undefined)
728 s	NC(=O)c1ccc(NC(=O)c2sc3ncccc3c2-n2cccc2)cc1
828 s	COc1ccc(NC(=O)C2CCCN(c3ncnc4c3nc3n4CCCCC3)C2)cc1Cl (centres undefined)
1000 s	CCOC(=O)c1ccccc1NC(=O)Cn1nc2c(Oc3ccccc3)nccn2c1=O
860 s	O=C(Nc1ccc(F)c(Cl)c1)N1CCC(n2cnc3ccc(F)cc3c2=O)CC1
659 s	NS(=O)(=O)c1ccc(NC(=O)C2CCCN(c3ncnc4c3nc3n4CCCCC3)C2)cc1 (centres undefined)
704 s	Cc1c(Cl)ccc2c(=O)c3c([nH]c12)CCN(CC(=O)Nc1cccc(Cl)c1)C3
722 s	Cc1nc2ccccc2c(=O)n1Cc1noc(C2CC(=O)N(c3ccccc3)C2)n1 (centres undefined)
826 s	CCN1C(=O)c2cccnc2Sc2cc(C(=O)NC3CCCCC3)ccc21
764 s	CCC(C(=O)N1CCOCC1)n1c2ccccc2c2cnn(C)c(=O)c21 (centres undefined)
597 s	CCC(=O)Nc1ccc(CCc2nc3ccc(C(=O)NCc4ccco4)cc3[nH]2)cc1
942 s	c1ccc(-c2nc(-c3ccnc(N4CCOCC4)c3)no2)cc1

RP-LC retention time	SMILES
1060 s	Cc1ccc(NC(=O)Cn2nc(N3CCCC3)c3ccccc3c2=O)cc1Cl
662 s	Nc1cc(C2CCN(C(=O)COc3ccccc3)CC2)no1
692 s	N#CCN(c1ccc2c(c1)OCO2)S(=O)(=O)c1ccc2nncn2c1
1090 s	Cc1cc(C)cc(NC(=O)c2cc3sccc3n2C)c1
1020 s	COc1ccccc1CNC(=O)c1nnc(-c2ccc(S(=O)(=O)N3CCC(C)CC3)cc2)o1
786 s	O=C(Nc1nnc(C2CC(=O)N(c3ccc(Cl)cc3)C2)o1)c1cccc(F)c1 (centres undefined)
751 s	CC(=O)N1CCc2cc(N3CC(C(=O)Nc4ccc(F)c(Cl)c4)CC3=O)ccc21 (centres undefined)
1020 s	Cc1ccc(-c2nnc(-c3cccnc3N3CCN(C(=O)c4ccc(Br)o4)CC3)o2)cc1
578 s	COCC1(O)CCOC2(CCN(Cc3ccc(C#N)cc3)CC2)C1 (centres undefined)
595 s	CCC[C@@H]1C[C@@H](C(=O)N[C@@H]([C@H]2O[C@H](SC)[C@H](O)[C@@H](O)[C@@H]2O)[C@@H](C)O)N(C)C1
562 s	O=C(NCCCO)c1ccc(CSc2nc3ccccc3[nH]2)cc1
924 s	CCc1cc(C2CCCN2C(=O)Nc2cccc(Cl)c2)on1 (centres undefined)
522 s	O=C(Nc1cnc2c(c1)CCC2)C1CCCC1
795 s	COc1ncc(C(=O)Nc2ccc(F)c(F)c2)c(C)n1
727 s	COc1ccc(OC)c(Nc2c(-c3cccc(O)c3)nc3cnccn23)c1
1260 s	CCCOc1nc2ccccc2nc1N1CCCC(C(=O)Nc2cccc(OC)c2)C1 (centres undefined)
620 s	CCCN(C)C[C@@H]1CC(F)(F)CN1C1CCN(S(=O)(=O)c2ccccc2C)CC1
627 s	CN(C)S(=O)(=O)c1ccc2c(c1)N(CC(=O)NCCN1CCCC1)C(=O)C1CCCCN21 (centres undefined)
723 s	COc1cccc(NC(=O)N2CCC3(CC2)NC(=O)c2ccc(F)cc2N3C)c1
870 s	CCC(C(=O)NCc1ccc(C)o1)n1nc(C)c2nn(-c3ccccc3)c(C)c2c1=O (centres undefined)
804 s	O=C([C@@H]1C[C@H](F)CN1C(=O)Nc1cccc(C(F)(F)F)c1)N1CCCCC1
938 s	COc1ccc(NC(=O)Cn2c(C)nc3c(sc4nc(-c5ccccc5)ccc43)c2=O)cc1OC
703 s	O=C(Cn1nc2n(c1=O)CCCC2)Nc1ccc(Br)cc1

RP-LC retention time	SMILES
804 s	CCn1ccc2cc(S(=O)(=O)N3CCCC(C(=O)NCCCOC)C3)ccc21 (centres undefined)
673 s	O=C(NCCN1CCCC1)c1ccc(-c2noc(-c3ccccc3)n2)s1
567 s	CN(C)c1ncncc1N1CCC(C(=O)N2CCOCC2)CC1
1090 s	COC(=O)C(NC(=O)Nc1ccc(-c2nc(-c3ccccc3)co2)cc1)c1ccccc1 (centres undefined)
998 s	COc1cccc(-c2noc(Cn3nc(-c4ccccc4)ccc3=O)n2)c1
989 s	CC(C)c1ccc(-c2csc(NC(=O)c3ccncc3)n2)cc1
634 s	Cc1cc(C(=O)NCc2ccc(C)o2)c2ccccc2n1
687 s	Cc1nc2cc(N3CCCC(C(=O)NCc4cccs4)C3)cnc2nc1C (centres undefined)
621 s	CN(C)c1ccc(CCNC(=O)c2cccc(C(F)(F)F)c2)cc1
874 s	Cc1nc(-c2noc(-c3ccc(F)cc3)n2)cn1CC(=O)NC1CCc2ccccc21 (centres undefined)
791 s	CCSc1nnc(-c2nn(C)c3c2CN(C(=O)C2CCCCC2)CC3)n1C
1030 s	C=Cc1ccc(COC(=O)C2=CN(CC)S(=O)(=O)N=C2C)cc1
850 s	CCOc1ccccc1N(C)C(=O)C1CCCN(c2ncnc3c2nc2n3CCCCC2)C1 (centres undefined)
600 s	Cc1nnc2c(NC(=O)c3cnccn3)cccn12
699 s	CC1(C)CC(=O)c2cn(-c3ccccc3)c(=O)c(C(=O)N3CCCC3)c2C1
646 s	Cc1ccccc1NS(=O)(=O)c1cc2n(c1)CCCNC2=O
1030 s	CC1CN(c2nc(-c3ccc([N+](=O)[O-])cc3)nc3ccccc23)CC(C)O1 (centres undefined)
697 s	CC(C)NC(=O)c1ccc(OCC2CCN(C(=O)C3CCCO3)CC2)cc1 (centres undefined)
722 s	CC(NC(=O)c1cc(-c2ccc(F)cc2)cn1C)c1ccccn1 (centres undefined)
674 s	COc1ccc(-c2nc(N3CCOCC3)c3sc(CN(C)c4ncc(C(=O)NO)cn4)cc3n2)cn1
